Where two headings read alike, the source gives them in different places.
Tests used:
MCF7DX = MCF7DX subline; cited from earlier work
[1] = system: HT29 human colon carcinoma; test: MTT cell growth inhibition, HT29; format: cell-based; settings: 5-10 days incubation
Experimental: (§1) Elsamitrucin and Elsamitrucin tosylate were tested in vitro using: B16F10 (murine […]), HCT 116 (human colon), HT29 (human colon) and SK-MES-1 (human non-small cell lung carcinoma ). Cell growth inhibition was evaluated in 96-well micro-culture plates with a semi-automated MTT (3-(4,5-dimethylthiazol-2-yl)-2,5-diphenyltetrazolium bromide) assay.
(§2) SK-MES-1 human non-small cell lung carcinoma, B16F10 murine melanoma cells, HCT 116 and HT29 human colon carcinomas (collectively “test cell cultures”) were maintained in buffered RPMI 1640 supplemented with fetal calf serum, antibiotics and other appropriate growth factors such as glutamine. Test cells (1,500-2,000 cells/well) were seeded in a 96-well micro culture plate with a total volume of 100 μL/well. After overnight incubation in a humidified incubator at 37° C. with 5% CO2 and 95% air, elsamitrucin solutions were diluted to various concentrations with RPMI 1640, were added to each well in a 100 μL volume. The elsamitrucin base and the elsamitrucin tosylate solutions (elsamitrucin solutions) were prepared and stored in a −20° C. freezer. The solutions were thawed not more than 10 times for the entire experiment.
(§3) Cell culture plates seeded with test cells and various concentrations of elsamitrucin solutions were placed in a humidified incubator at 37° C., with CO2 and 95% air for 5-10 days. […]

MDA-MB-231 = settings: ER− MDA-MB-231; cited from earlier work
[2] = system: HCT 116 human colon carcinoma; test: MTT cell growth inhibition, HCT 116; format: cell-based; settings: 5-10 days incubation
Experimental: as §1, §2, §3

MCF7 = settings: ER+ MCF7; cited from earlier work
[3] = system: clinical breast cancer specimens from untreated patients; settings: cited from earlier work
[4] = system: B16F10 murine melanoma cells; test: MTT cell growth inhibition, B16F10; format: cell-based; settings: 5-10 days incubation
Experimental: as §1, §2, §3

[5] = system: patients with refractory/relapsed non-Hodgkin's lymphoma; settings: cited from earlier work
[6] = system: SK-MES-1 human non-small cell lung carcinoma; test: MTT cell growth inhibition, SK-MES-1; format: cell-based; settings: 5-10 days incubation
Experimental: as §1, §2, §3

benzo(h)(1)benzopyrano(5,4,3-cde)(1)ebnzopyran-5,12-dione,10((2-O-(2-amino-2,6-dideoxy-3-O-methyl-alpha-D-galactopyranosyl)-6-deoxy-3-C-methyl-beta-D-galactopyranosyl)oxy)-6-hydroxy-1-methyl [Elsamitrucin]
cross-resistance to doxorubicin (DX) (MCF7DX): cross-resistant to DX | IC50 [1]: 0.095 µM | IC50 antiproliferative effect (MDA-MB-231): 0.21 micrograms/ml | IC50 [2]: 0.074 µM | IC50 antiproliferative effect (MCF7): 0.25 micrograms/ml | minimal inhibiting concentration ([3]; ER+ tumors): 0.1 micrograms/ml | minimal inhibiting concentration ([3]; ER− tumors): 3.5 micrograms/ml | IC50 [4]: 0.024 µM | elsamitrucin-associated toxicity [5]: relatively mild | myelosuppression [5]: did not include myelosuppression | IC50 [6]: 0.042 µM
